Assay results published in patent publication US6203813A, “Pharmaceutical delivery device and method of preparation therefor” (priority 1998, dated 2001).
“Also recorded” adds a separate entry of the source.

How the values were obtained:
rats [1] = conditions: 50 mg pellets containing 10 mg naloxone or naltrexone as base; cited from earlier work
male rats = conditions: pentobarbital injection; naltrexone by injection vs pellet; cited from earlier work
rats [2] = conditions: chronic naltrexone exposure; cited from earlier work
patients = conditions: cited from earlier work
[3] = cited from earlier work
[4] = Patients' blood levels of naltrexone and 6-beta-naltrexone after subcutaneous pellet implant; type: in vivo, human
opiate addicts = experiment: Relapse studies after opiate reversal under general anesthesia (telephone follow-up); type: in vivo, human

**Q.** For C=CCN1CC[C@]23c4c5ccc(O)c4O[C@H]2C(=O)CC[C@@]3(O)[C@H]1C5 [naloxone, N-allylnoroxymorphone], which “analgesia on repeated painful stimulation” value (rats [1]) is on record?
**A.** repeated painful stimulation results in analgesia in rats treated with an opiate antagonist

**Q.** For O=C1CC[C@@]2(O)[C@H]3Cc4ccc(O)c5c4[C@@]2(CCN3CC2CC2)[C@H]1O5 [naltrexone, N-cyclopropylmethylnoroxy morphone], which pentobarbital sleeping time (male rats) is on record?
**A.** increasingly antagonized after naltrexone administration by injection

**Q.** What about the “analgesia on repeated painful stimulation” value (rats [1]) of the same molecule?
**A.** repeated painful stimulation results in analgesia in rats treated with an opiate antagonist

**Q.** What about the “behavioral sensitivity / morphine-induced hyperactivity after chronic naltrexone” value (rats [2]) of the same molecule?
**A.** produces behavioral supersensitivity to morphine-induced reinforcement and hyperactivity; also recorded: potentiated morphine-induced hyperactivity in rats

**Q.** And the addiction liability (patients; human, in vivo)?
**A.** neither addicting nor habit-forming

**Q.** What about the “euphoric effects / effects on stopping the drug” value (patients; human, in vivo) of the same molecule?
**A.** provides no euphoric effects and there are no observable pharmacological consequences when a patient stops taking the drug

**Q.** And the side-effects (patients; use in humans)?
**A.** free of severe side-effects

**Q.** And the “level in bloodstream after leveling off, oral” value ([3]; 1000 mg naltrexone orally, after 48 hours / two days)?
**A.** 0 ng/mL

**Q.** And the “duration of the 100 ng/ml level, oral” value ([3]; 1000 mg naltrexone orally)?
**A.** 48 h

**Q.** And the “level in patient's bloodstream, oral” value ([3]; 1000 mg naltrexone orally, for 48 hours)?
**A.** 100 ng/mL

**Q.** What about the “undesirable side effects of conventional oral delivery” value ([3]; at approximately 100 ng/l in the blood stream) of the same molecule?
**A.** undesirable side effects such as an unpleasant feeling

**Q.** And the “duration of therapeutically effective naltrexone level in bloodstream” value ([4]; 1000 mg dose, inventive implant, ~2-8 ng/ml)?
**A.** approximately eighty

**Q.** What about the Ntx level ([4]; 78 days since implant, patients' blood, pellet of Examples 1-4, listed as Ntx, 112320 min) of the same molecule?
**A.** 6 ng/mL

**Q.** And the concentration at 1920 h ([4]; human, blood, sc, 1000 mg, inventive implant, leveling off, for approximately eighty days, read-out: level of naltrexone in patient's bloodstream)?
**A.** 2 to 8 ng/mL

**Q.** And the concentration at 192 h ([4]; human, blood, sc, 8 days since implant, patients' blood, pellet of Examples 1-4, read-out: Ntx level)?
**A.** 7 ng/mL

**Q.** What about the concentration at 336 h ([4]; human, blood, sc, 14 days since implant, patients' blood, pellet of Examples 1-4, read-out: Ntx level) of the same molecule?
**A.** 11 ng/mL

**Q.** And the concentration at 528 h ([4]; human, blood, sc, 22 days since implant, patients' blood, pellet of Examples 1-4, read-out: Ntx level)?
**A.** 7 ng/mL

**Q.** What about the concentration at 672 h ([4]; human, blood, sc, 28 days since implant, patients' blood, pellet of Examples 1-4, read-out: Ntx level) of the same molecule?
**A.** 2 ng/mL

**Q.** And the concentration at 696 h ([4]; human, blood, sc, 29 days since implant, patients' blood, pellet of Examples 1-4, read-out: Ntx level)?
**A.** 2 ng/mL

**Q.** And the concentration at 768 h ([4]; human, blood, sc, 32 days since implant, patients' blood, pellet of Examples 1-4, read-out: Ntx level)?
**A.** 7 ng/mL

**Q.** What about the concentration at 792 h ([4]; human, blood, sc, 33 days since implant, patients' blood, pellet of Examples 1-4, read-out: Ntx level) of the same molecule?
**A.** < 2 ng/mL

**Q.** And the concentration at 816 h ([4]; human, blood, sc, 34 days since implant, patients' blood, pellet of Examples 1-4, read-out: Ntx level)?
**A.** 4 ng/mL

**Q.** And the concentration at 840 h ([4]; human, blood, sc, 35 days since implant, patients' blood, pellet of Examples 1-4, read-out: Ntx level)?
**A.** 4 ng/mL

**Q.** What about the concentration at 888 h ([4]; human, blood, sc, 37 days since implant, patients' blood, pellet of Examples 1-4, read-out: Ntx level) of the same molecule?
**A.** < 3 ng/mL

**Q.** What about the concentration at 912 h ([4]; human, blood, sc, 38 days since implant, patients' blood, pellet of Examples 1-4, read-out: Ntx level) of the same molecule?
**A.** < 2 ng/mL

**Q.** What about the concentration at 936 h ([4]; human, blood, sc, 39 days since implant, patients' blood, pellet of Examples 1-4, read-out: Ntx level) of the same molecule?
**A.** 5 ng/mL

**Q.** What about the concentration at 1008 h ([4]; human, blood, sc, 42 days since implant, patients' blood, pellet of Examples 1-4, read-out: Ntx level) of the same molecule?
**A.** 4 ng/mL

**Q.** And the concentration at 1176 h ([4]; human, blood, sc, 49 days since implant, patients' blood, pellet of Examples 1-4, read-out: Ntx level)?
**A.** 4 ng/mL

**Q.** And the concentration at 1224 h ([4]; human, blood, sc, 51 days since implant, patients' blood, pellet of Examples 1-4, read-out: Ntx level)?
**A.** 8 ng/mL

**Q.** What about the concentration at 1320 h ([4]; human, blood, sc, 55 days since implant, patients' blood, pellet of Examples 1-4, read-out: Ntx level) of the same molecule?
**A.** 36 ng/mL

**Q.** What about the concentration at 1440 h ([4]; human, blood, sc, 60 days since implant, patients' blood, pellet of Examples 1-4, read-out: Ntx level) of the same molecule?
**A.** 10 ng/mL

**Q.** And the concentration at 1488 h ([4]; human, blood, sc, 62 days since implant, patients' blood, pellet of Examples 1-4, read-out: Ntx level)?
**A.** < 4 ng/mL

**Q.** And the concentration at 1560 h ([4]; human, blood, sc, 65 days since implant, patients' blood, pellet of Examples 1-4, read-out: Ntx level)?
**A.** < 2 ng/mL

**Q.** What about the concentration at 1680 h ([4]; human, blood, sc, 70 days since implant, patients' blood, pellet of Examples 1-4, read-out: Ntx level) of the same molecule?
**A.** 3 ng/mL

**Q.** What about the concentration at 1848 h ([4]; human, blood, sc, 77 days since implant, patients' blood, pellet of Examples 1-4, read-out: Ntx level) of the same molecule?
**A.** 2 ng/mL

**Q.** And the concentration at 1872 h ([4]; human, blood, sc, 78 days since implant, patients' blood, pellet of Examples 1-4, read-out: Ntx level)?
**A.** 4 ng/mL

**Q.** What about the “patients using opiates, assuming all not contacted were using” value (opiate addicts; one month after opiate reversal, DNM versus ONM, x2=0.76 (not significant)) of the same molecule?
**A.** 54%

**Q.** And the “patients using opiates, excluding those who could not be contacted” value (opiate addicts; one month follow-up after ORGA, DNM 1000 mg per month pellet versus ONM 50 mg per day oral, x2=14.06 (very significant))?
**A.** 44%
